In PubChem BioAssay (NCI):
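Five compound concentrations were applied to cells in 96-well plates for 48 hours; endpoints were derived by simple linear interpolation of the resulting dose-response curve. The concentration for full growth arrest is given as TGI.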

What follows are molecules tested on K-562 leukemia (assay: NCI anticancer screen, dose series, 48 h).
With `COC(=O)c1c(O)ccc2c1c1c(n2Cc2cc(OC)cc(OC)c2)C(=O)c2ccccc2C1` the TGI was > 100 µM. `O=C(N/N=C(\c1ccccc1)c1ccccn1)NC1CCCCC1` was tested, and the TGI was > 100 µM. With `COc1cc(OC)c2nc(C)c(CCCl)c(Cl)c2c1` the TGI was > 100 µM. In the case of `COc1cc(Nc2nc3ccccc3nc2C(=O)O)cc(OC)c1OC`, the TGI is reported as > 100 µM. In the case of `O=[N+]([O-])c1cccc(C2=NN(c3ccccc3)C[N+](c3ccc(Br)cc3)=N2)c1`, the TGI is reported as > 100 µM.

These molecules were tested on A498 renal (assay: NCI anticancer screen, dose series, 48 h).
In the case of `O=[N+]([O-])C[C@@]12O[C@]3(O)C4C5CC(C6C5C3C61)C42` (stereo partly specified), the TGI is reported as > 100 µM. In the case of `CO/N=C(\C(=O)OC(=NC1CCCCC1)NC1CCCCC1)c1csc(NC(c2ccccc2)(c2ccccc2)c2ccccc2)n1`, the TGI is reported as > 10 µM. For `Cc1c2n(c(=O)[nH]c1=O)C1OC(CO)C(O2)C1O` (stereo unspecified), the TGI was > 100 µM. With `CO[C@@]12C[C@@H](C)C3=CCC(C)=C3CC1=C(C)C(=O)O2` the TGI was > 100 µM. With `CC1(C)[C@@H](Cn2ccc(=O)[nH]c2=O)CC[C@@]1(C)CO` the TGI was > 100 µM. For `O=C1/C(=C/c2ccc(Br)s2)NC(=S)N1c1ccccc1`, the TGI was > 100 µM. With `CC(C)(C)OC(=O)N(CCCCN(CCCNC(=O)C(F)(F)F)C(=O)OC(C)(C)C)CCCNC(=O)C(F)(F)F` the TGI was > 100 µM. For `C=CCCON(C(=O)OC(C)(C)C)C(C)(C)C`, the TGI was > 100 µM. With `CCOC(=O)Nc1[nH]cc(-c2ccccc2)c1C#N` the TGI was > 100 µM. For `O=c1oc2ccccc2cc1-c1cc2ccccn2c1`, the TGI was > 100 µM. For `COC(=O)c1c(O)ccc2c1c1c(n2Cc2cc(OC)cc(OC)c2)C(=O)c2ccccc2C1`, the TGI was > 100 µM. In the case of `NC(N)=NCCN1CC2CCC(CC2)C1`, the TGI is reported as > 100 µM. `COc1cc(OC)c2nc(C)c(CCCl)c(Cl)c2c1` was tested, and the TGI was > 100 µM. `COc1cc(Nc2nc3ccccc3nc2C(=O)O)cc(OC)c1OC` gave a TGI of 82.5 µM. With `O=[N+]([O-])c1cccc(C2=NN(c3ccccc3)C[N+](c3ccc(Br)cc3)=N2)c1` the TGI was > 100 µM.

These molecules were tested on MDA-N (assay: NCI anticancer screen, dose series, 48 h).
Work on `Cc1ccc(/C=N/Nc2cc(C)c3cccc(C)c3n2)s1` yielded a TGI of 25.1 µM. For `CO/N=C(\C(=O)OC(=NC1CCCCC1)NC1CCCCC1)c1csc(NC(c2ccccc2)(c2ccccc2)c2ccccc2)n1`, the TGI was > 10 µM. In the case of `CCCC(=O)NC(NC1CCCCC1)(C(=O)OCC)C(F)(F)F` (stereo unspecified), the TGI is reported as > 100 µM. With `CN(CCSCCN(C)C(=O)OC(C)(C)C)C(=O)OC(C)(C)C` the TGI was > 100 µM. `CC1(C)/C(=N\NC(N)=O)C2CCC1C2` (stereo unspecified) was tested, and the TGI was > 100 µM. With `CC1(C)[C@@H](Cn2ccc(=O)[nH]c2=O)CC[C@@]1(C)CO` the TGI was > 100 µM. `O=C1/C(=C/c2ccc(Br)s2)NC(=S)N1c1ccccc1` was tested, and the TGI was > 100 µM. For `C=CCCON(C(=O)OC(C)(C)C)C(C)(C)C`, the TGI was > 100 µM. With `CCOC(=O)Nc1[nH]cc(-c2ccccc2)c1C#N` the TGI was > 100 µM. With `O=c1oc2ccccc2cc1-c1cc2ccccn2c1` the TGI was > 100 µM. `COC(=O)c1c(O)ccc2c1c1c(n2Cc2cc(OC)cc(OC)c2)C(=O)c2ccccc2C1` was tested, and the TGI was > 100 µM. In the case of `O=C(N/N=C(\c1ccccc1)c1ccccn1)NC1CCCCC1`, the TGI is reported as > 100 µM. In the case of `CC(=O)CCn1c(=S)sc2ccccc21`, the TGI is reported as > 100 µM. For `NC(N)=NCCN1CC2CCC(CC2)C1`, the TGI was > 100 µM. `COc1cc(OC)c2nc(C)c(CCCl)c(Cl)c2c1` was tested, and the TGI was > 100 µM. `COc1cc(Nc2nc3ccccc3nc2C(=O)O)cc(OC)c1OC` was tested, and the TGI was > 100 µM.

Each molecule was assayed on T-47D breast (assay: NCI anticancer screen, dose series, 48 h).
In the case of `O=[N+]([O-])C[C@@]12O[C@]3(O)C4C5CC(C6C5C3C61)C42` (stereo partly specified), the TGI is reported as > 100 µM. `Cc1ccc(/C=N/Nc2cc(C)c3cccc(C)c3n2)s1` was tested, and the TGI was > 100 µM. For `CO/N=C(\C(=O)OC(=NC1CCCCC1)NC1CCCCC1)c1csc(NC(c2ccccc2)(c2ccccc2)c2ccccc2)n1`, the TGI was > 10 µM. With `CCCC(=O)NC(NC1CCCCC1)(C(=O)OCC)C(F)(F)F` (stereo unspecified) the TGI was > 100 µM. For `CC1(C)/C(=N\NC(N)=O)C2CCC1C2` (stereo unspecified), the TGI was > 100 µM. For `CC1(C)[C@@H](Cn2ccc(=O)[nH]c2=O)CC[C@@]1(C)CO`, the TGI was > 100 µM. `CC(C)(C)OC(=O)N(CCCCN(CCCNC(=O)C(F)(F)F)C(=O)OC(C)(C)C)CCCNC(=O)C(F)(F)F` was tested, and the TGI was > 100 µM. With `C=CCCON(C(=O)OC(C)(C)C)C(C)(C)C` the TGI was > 100 µM. In the case of `O=C(N/N=C(\c1ccccc1)c1ccccn1)NC1CCCCC1`, the TGI is reported as > 100 µM. For `NC(N)=NCCN1CC2CCC(CC2)C1`, the TGI was > 100 µM. In the case of `COc1cc(Nc2nc3ccccc3nc2C(=O)O)cc(OC)c1OC`, the TGI is reported as > 100 µM.

The molecules below were run on SF-268 CNS (assay: NCI anticancer screen, dose series, 48 h).
For `O=[N+]([O-])C[C@@]12O[C@]3(O)C4C5CC(C6C5C3C61)C42` (stereo partly specified), the TGI was > 100 µM. Work on `Cc1ccc(/C=N/Nc2cc(C)c3cccc(C)c3n2)s1` yielded a TGI of 64.2 µM. For `CO/N=C(\C(=O)OC(=NC1CCCCC1)NC1CCCCC1)c1csc(NC(c2ccccc2)(c2ccccc2)c2ccccc2)n1`, the TGI was > 10 µM. In the case of `CCCC(=O)NC(NC1CCCCC1)(C(=O)OCC)C(F)(F)F` (stereo unspecified), the TGI is reported as > 100 µM. With `Cc1c2n(c(=O)[nH]c1=O)C1OC(CO)C(O2)C1O` (stereo unspecified) the TGI was > 100 µM. In the case of `CN(CCSCCN(C)C(=O)OC(C)(C)C)C(=O)OC(C)(C)C`, the TGI is reported as > 100 µM. In the case of `CC1(C)/C(=N\NC(N)=O)C2CCC1C2` (stereo unspecified), the TGI is reported as > 100 µM. With `CO[C@@]12C[C@@H](C)C3=CCC(C)=C3CC1=C(C)C(=O)O2` the TGI was > 100 µM. With `CC1(C)[C@@H](Cn2ccc(=O)[nH]c2=O)CC[C@@]1(C)CO` the TGI was > 100 µM. With `O=C1/C(=C/c2ccc(Br)s2)NC(=S)N1c1ccccc1` the TGI was > 100 µM. `CC(C)(C)OC(=O)N(CCCCN(CCCNC(=O)C(F)(F)F)C(=O)OC(C)(C)C)CCCNC(=O)C(F)(F)F` was tested, and the TGI was > 100 µM. In the case of `C=CCCON(C(=O)OC(C)(C)C)C(C)(C)C`, the TGI is reported as > 100 µM. For `CCOC(=O)Nc1[nH]cc(-c2ccccc2)c1C#N`, the TGI was > 100 µM. `[N-]=[N+]=NC1(Cc2ccccc2)C(=O)c2cccc3c2N(CCC3)C1=O` (stereo unspecified) was tested, and the TGI was > 100 µM. With `O=c1oc2ccccc2cc1-c1cc2ccccn2c1` the TGI was > 100 µM. With `COC(=O)c1c(O)ccc2c1c1c(n2Cc2cc(OC)cc(OC)c2)C(=O)c2ccccc2C1` the TGI was > 100 µM. For `O=C(N/N=C(\c1ccccc1)c1ccccn1)NC1CCCCC1`, the TGI was > 100 µM. In the case of `CC(=O)CCn1c(=S)sc2ccccc21`, the TGI is reported as > 100 µM. `NC(N)=NCCN1CC2CCC(CC2)C1` was tested, and the TGI was > 100 µM. `COc1cc(OC)c2nc(C)c(CCCl)c(Cl)c2c1` was tested, and the TGI was > 100 µM. `COc1cc(Nc2nc3ccccc3nc2C(=O)O)cc(OC)c1OC` was tested, and the TGI was > 100 µM. With `O=[N+]([O-])c1cccc(C2=NN(c3ccccc3)C[N+](c3ccc(Br)cc3)=N2)c1` the TGI was > 100 µM.

These molecules were tested on MCF7 breast (assay: NCI anticancer screen, dose series, 48 h).
In the case of `O=[N+]([O-])C[C@@]12O[C@]3(O)C4C5CC(C6C5C3C61)C42` (stereo partly specified), the TGI is reported as > 100 µM. `Cc1ccc(/C=N/Nc2cc(C)c3cccc(C)c3n2)s1` gave a TGI of 18 µM. `CO/N=C(\C(=O)OC(=NC1CCCCC1)NC1CCCCC1)c1csc(NC(c2ccccc2)(c2ccccc2)c2ccccc2)n1` was tested, and the TGI was > 10 µM. With `CCCC(=O)NC(NC1CCCCC1)(C(=O)OCC)C(F)(F)F` (stereo unspecified) the TGI was > 100 µM. In the case of `CN(CCSCCN(C)C(=O)OC(C)(C)C)C(=O)OC(C)(C)C`, the TGI is reported as > 100 µM. For `CC1(C)/C(=N\NC(N)=O)C2CCC1C2` (stereo unspecified), the TGI was > 100 µM. With `O=C1/C(=C/c2ccc(Br)s2)NC(=S)N1c1ccccc1` the TGI was > 100 µM. In the case of `CC(C)(C)OC(=O)N(CCCCN(CCCNC(=O)C(F)(F)F)C(=O)OC(C)(C)C)CCCNC(=O)C(F)(F)F`, the TGI is reported as > 100 µM. In the case of `CCOC(=O)Nc1[nH]cc(-c2ccccc2)c1C#N`, the TGI is reported as > 100 µM. For `O=c1oc2ccccc2cc1-c1cc2ccccn2c1`, the TGI was > 100 µM. In the case of `COC(=O)c1c(O)ccc2c1c1c(n2Cc2cc(OC)cc(OC)c2)C(=O)c2ccccc2C1`, the TGI is reported as > 100 µM. With `CC(=O)CCn1c(=S)sc2ccccc21` the TGI was > 100 µM. For `COc1cc(OC)c2nc(C)c(CCCl)c(Cl)c2c1`, the TGI was > 100 µM.

The molecules below were run on NCI-H23 lung (assay: NCI anticancer screen, dose series, 48 h).
In the case of `O=[N+]([O-])C[C@@]12O[C@]3(O)C4C5CC(C6C5C3C61)C42` (stereo partly specified), the TGI is reported as > 100 µM. Work on `Cc1ccc(/C=N/Nc2cc(C)c3cccc(C)c3n2)s1` yielded a TGI of 35.2 µM. For `CO/N=C(\C(=O)OC(=NC1CCCCC1)NC1CCCCC1)c1csc(NC(c2ccccc2)(c2ccccc2)c2ccccc2)n1`, the TGI was > 10 µM. With `CCCC(=O)NC(NC1CCCCC1)(C(=O)OCC)C(F)(F)F` (stereo unspecified) the TGI was > 100 µM. With `Cc1c2n(c(=O)[nH]c1=O)C1OC(CO)C(O2)C1O` (stereo unspecified) the TGI was > 100 µM. For `CN(CCSCCN(C)C(=O)OC(C)(C)C)C(=O)OC(C)(C)C`, the TGI was > 100 µM. In the case of `CC1(C)/C(=N\NC(N)=O)C2CCC1C2` (stereo unspecified), the TGI is reported as > 100 µM. In the case of `CO[C@@]12C[C@@H](C)C3=CCC(C)=C3CC1=C(C)C(=O)O2`, the TGI is reported as > 100 µM. With `O=C1/C(=C/c2ccc(Br)s2)NC(=S)N1c1ccccc1` the TGI was > 100 µM.
